Data as given in US10590128B2, “6,7,8,9-tetrahydro-5H-pyrido[2,3-d]azepine dopamine D3 ligands” (Pfizer Inc., priority 2016, dated 2020).

What was measured:
[1] = target: human dopamine D3 receptor (hD3R) (Homo sapiens, UniProt P35462); assay: Human D3 receptor binding assay ([^3H]-7-OH-DPAT); details: CHO cells expressing hD3R, geometric mean of 2-5 determinations unless marked b (single determination), read-out: hD3 in CHO cells Ki
Method: (§1) Human D2 Receptor and Human D3 Receptor Binding Assays:
(§2) These determined ligand and tissue concentrations were utilized in time course studies to determine linearity and equilibrium conditions for binding. […] The hD2R assay buffer contains 50 mM Tris (pH 7.4 @ 37° C.), 100 mM NaCl and 1 mM MgCl2. The hD3R assay buffer consists of 50 mM Tris (pH 7.4 at 37° C.), 120 mM NaCl, 5 mM MgCl2, 5 mM KCl and 2 mM CaCl2. Competitive binding experiments were initiated by the addition of 200 μL of the respective cell homogenate to 96-well plates containing […] test drugs (10 concentrations using ½ log dilutions) and 50 μL of ^3H-radioligand for a final volume of 250 μL. Non-specific binding was determined by radioligand binding in the presence of a saturating concentration of Haldol (10 μM). After the 20 minute incubation at 37° C., assay samples were rapidly filtered through Unifilter-96 GF/B PEI-coated filter plates and rinsed with ice-cold 50 mM Tris buffer (pH 7.4 at 4° C.). […] The IC50 value (concentration at which 50% inhibition of specific binding occurs) was calculated by linear regression of the concentration-response data in ActivityBase. Ki values were then calculated according to the Cheng-Prusoff equation:
(§3) [formula] where [L]=concentration of free radioligand and Kd=dissociation constant of radioligand for D3 receptor or D2 receptor.

[2] = target: human dopamine D2 receptor (hD2R) (Homo sapiens, UniProt P14416); assay: Human D2 receptor binding assay ([^3H]-Spiperone); details: CHO cells expressing hD2R, geometric mean of 2-5 determinations unless marked b (single determination)
Method: as §1, §2, §3

Sequence of human dopamine D3 receptor (hD3R) (P35462 whole entry): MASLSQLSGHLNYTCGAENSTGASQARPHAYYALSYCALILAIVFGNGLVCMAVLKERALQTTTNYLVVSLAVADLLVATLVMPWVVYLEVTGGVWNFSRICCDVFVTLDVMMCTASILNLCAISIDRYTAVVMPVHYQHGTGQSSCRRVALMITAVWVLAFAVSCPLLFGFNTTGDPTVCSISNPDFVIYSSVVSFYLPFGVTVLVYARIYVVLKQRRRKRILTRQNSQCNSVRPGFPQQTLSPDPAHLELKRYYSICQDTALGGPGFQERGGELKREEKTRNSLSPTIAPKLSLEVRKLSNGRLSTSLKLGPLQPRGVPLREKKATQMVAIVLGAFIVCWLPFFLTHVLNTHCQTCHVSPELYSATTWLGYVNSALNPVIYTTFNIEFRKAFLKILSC
Sequence of human dopamine D2 receptor (hD2R) (P14416 whole entry): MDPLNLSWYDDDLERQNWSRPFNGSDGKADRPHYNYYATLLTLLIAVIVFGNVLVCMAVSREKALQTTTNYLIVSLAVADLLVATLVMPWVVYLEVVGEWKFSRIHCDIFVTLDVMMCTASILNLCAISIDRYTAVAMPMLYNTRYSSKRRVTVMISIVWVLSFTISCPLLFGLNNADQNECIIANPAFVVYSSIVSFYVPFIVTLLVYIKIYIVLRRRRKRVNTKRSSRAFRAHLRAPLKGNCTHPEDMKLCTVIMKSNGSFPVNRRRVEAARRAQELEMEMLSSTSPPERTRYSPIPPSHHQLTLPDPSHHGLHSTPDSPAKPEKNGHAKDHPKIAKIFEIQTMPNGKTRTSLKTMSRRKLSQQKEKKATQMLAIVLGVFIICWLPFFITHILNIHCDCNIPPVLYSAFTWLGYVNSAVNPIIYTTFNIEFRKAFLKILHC

| SMILES | Ki [1] | Ki [2] |
| --- | --- | --- |
| COc1nc2c(cc1NS(=O)(=O)c1ccc(C3CC(F)CCO3)cc1)CCN(C)CC2 (single isomer, unassigned) [Example 106, 4-(4-fluorotetrahydro-2H-pyran-2-yl)-N-(2-methoxy-7-methyl-6,7,8,9-tetrahydro-5H-pyrido[2,3-d]azepin-3-yl)benzenesulfonamide] | 4.31 nM | 320 nM |
| CCN1CCc2cc(NS(=O)(=O)c3ccc([C@H]4C[C@H](OC)C4)cc3)c(OC)nc2CC1 [Example 68, N-(7-ethyl-2-methoxy-6,7,8,9-tetrahydro-5H-pyrido[2,3-d]azepin-3-yl)-4-(trans-3-methoxycyclobutyl)benzenesulfonamide] | 1.26 nM | 338 nM |
| COc1nc2c(cc1NS(=O)(=O)c1cnc(OC(C)(C)C)nc1)CCN(C)CC2 [Example 117, 2-tert-butoxy-N-(2-methoxy-7-methyl-6,7,8,9-tetrahydro-5H-pyrido[2,3-d]azepin-3-yl)pyrimidine-5-sulfonamide] | 9.93 nM | 464 nM |
| COc1nc2c(cc1NS(=O)(=O)c1ccc(C3CC(F)(F)CCO3)cc1)CCN(C)CC2 (single isomer, unassigned) [Example 42] | 5.91 nM | 402 nM |
| COc1nc2c(cc1NS(=O)(=O)c1ccc(OC3CCC3)nc1)CCN(C)CC2 [Example 17, 6-(cyclobutyloxy)-N-(2-methoxy-7-methyl-6,7,8,9-tetrahydro-5H-pyrido[2,3-d]azepin-3-yl)pyridine-3-sulfonamide] | 1.95 nM | 90.2 nM |
| COc1nc2c(cc1NS(=O)(=O)c1ccc(OC(C)(C)C)nc1)CCN(C)CC2 [Example 103, 6-tert-butoxy-N-(2-methoxy-7-methyl-6,7,8,9-tetrahydro-5H-pyrido[2,3-d]azepin-3-yl)pyridine-3-sulfonamide] | 1.85 nM | 45.2 nM |
| CCN1CCc2cc(NS(=O)(=O)c3ccc(C)c(C)c3)c(OC)nc2CC1 [Example 61, N-(7-ethyl-2-methoxy-6,7,8,9-tetrahydro-5H-pyrido[2,3-d]azepin-3-yl)-3,4-dimethylbenzenesulfonamide] | 2.33 nM | 388 nM |
| COc1nc2c(cc1NS(=O)(=O)c1ccc(O[C@@H]3CCOC3)cc1)CCN(C)CC2 [Example 37, N-(2-methoxy-7-methyl-6,7,8,9-tetrahydro-5H-pyrido[2,3-d]azepin-3-yl)-4-[(3R)-tetrahydrofuran-3-yloxy]benzenesulfonamide] | 3.21 nM | 260 nM |
| CCc1nc2c(cc1NS(=O)(=O)c1ccc([C@H]3CCCCO3)cc1)CCN(C)CC2 [Example 140, N-(2-ethyl-7-methyl-6,7,8,9-tetrahydro-5H-pyrido[2,3-d]azepin-3-yl)-4-[(2R)-tetrahydro-2H-pyran-2-yl]benzenesulfonamide] | 27.5 nM | 3300 nM |
| COc1nc2c(cc1NS(=O)(=O)c1ccc(C(C)OC)cc1)CCN(C)CC2 (stereo not shown) [Example 32, 4-(1-methoxyethyl)-N-(2-methoxy-7-methyl-6,7,8,9-tetrahydro-5H-pyrido[2,3-d]azepin-3-yl)benzenesulfonamide] | 1.05 nM | 204 nM |
| CCO[C@H]1C[C@@](F)(c2ccc(S(=O)(=O)Nc3cc4c(nc3OC)CCN(CC)CC4)cc2)C1 [Example 48, 4-(trans-3-ethoxy-1-fluorocyclobutyl)-N-(7-ethyl-2-methoxy-6,7,8,9-tetrahydro-5H-pyrido[2,3-d]azepin-3-yl)benzenesulfonamide] | 7.25 nM | 933 nM |
| CCN1CCc2cc(NS(=O)(=O)c3ccc(C4CCCCO4)cc3)c(OC)nc2CC1 (racemic) [Example 70, N-(7-ethyl-2-methoxy-6,7,8,9-tetrahydro-5H-pyrido[2,3-d]azepin-3-yl)-4-(tetrahydro-2H-pyran-2-yl)benzenesulfonamide] | 2 nM | 294 nM |
| CCOc1ccc(S(=O)(=O)Nc2cc3c(nc2C)CCN(CC)CC3)cc1 [Example 137, 4-Ethoxy-N-(7-ethyl-2-methyl-6,7,8,9-tetrahydro-5H-pyrido[2,3-d]azepin-3-yl)benzenesulfonamide] | 152 nM | > 4190 nM |
| COc1nc2c(cc1NS(=O)(=O)c1cnc(C3CCC3)c(F)c1)CCN(C)CC2 [Example 24, 6-cyclobutyl-5-fluoro-N-(2-methoxy-7-methyl-6,7,8,9-tetrahydro-5H-pyrido[2,3-d]azepin-3-yl)pyridine-3-sulfonamide] | 4.2 nM | 232 nM |
| COc1nc2c(cc1NS(=O)(=O)c1ccc(C3(F)CCCCC3)nc1)CCN(C)CC2 [Example 19, 6-(1-fluorocyclohexyl)-N-(2-methoxy-7-methyl-6,7,8,9-tetrahydro-5H-pyrido[2,3-d]azepin-3-yl)pyridine-3-sulfonamide] | 2.76 nM | 91.2 nM |
| Cc1ccc(S(=O)(=O)Nc2cc3c(nc2C(F)(F)F)CCN(C)CC3)cc1 [Example 139, 4-methyl-N-[7-methyl-2-(trifluoromethyl)-6,7,8,9-tetrahydro-5H-pyrido[2,3-d]azepin-3-yl]benzenesulfonamide] | 713 nM | > 4280 nM |
| COc1nc2c(cc1NS(=O)(=O)c1ccc([C@@H](C)OC)cc1)CCN(C)CC2 [Example 90, 4-[(1R)-1-methoxyethyl]-N-(2-methoxy-7-methyl-6,7,8,9-tetrahydro-5H-pyrido[2,3-d]azepin-3-yl)benzenesulfonamide] | 1.93 nM | 207 nM |
| CCN1CCc2cc(NS(=O)(=O)c3ccc(C4CC4)cc3)c(OC)nc2CC1 [Example 30, 4-cyclopropyl-N-(7-ethyl-2-methoxy-6,7,8,9-tetrahydro-5H-pyrido[2,3-d]azepin-3-yl)benzenesulfonamide] | 0.89 nM | 55 nM |
| CCCN1CCc2cc(NS(=O)(=O)c3ccc(C(C)C)cc3)c(OC(F)F)nc2CC1 [Example 12, N-[2-(Difluoromethoxy)-7-propyl-6,7,8,9-tetrahydro-5H-pyrido[2,3-d]azepin-3-yl]-4-(propan-2-yl)benzenesulfonamide] | 281 nM | 260 nM |
| CCN1CCc2cc(NS(=O)(=O)c3ccc([C@]4(O)C[C@@H](OC)C4)nc3)c(OC)nc2CC1 [Example 23, N-(7-ethyl-2-methoxy-6,7,8,9-tetrahydro-5H-pyrido[2,3-d]azepin-3-yl)-6-(cis-1-hydroxy-3-methoxycyclobutyl)pyridine-3-sulfonamide] | > 459 nM | > 4600 nM |
| COc1nc2c(cc1NS(=O)(=O)c1ccc3c(c1)CCCO3)CCN(C)CC2 [Example 31, N-(2-methoxy-7-methyl-6,7,8,9-tetrahydro-5H-pyrido[2,3-d]azepin-3-yl)-3,4-dihydro-2H-chromene-6-sulfonamide] | 1.24 nM | 564 nM |
| CCN1CCc2cc(NS(=O)(=O)c3ccc([C@@H]4CCCCO4)c(F)c3)c(OC)nc2CC1 [Example 43, N-(7-ethyl-2-methoxy-6,7,8,9-tetrahydro-5H-pyrido[2,3-d]azepin-3-yl)-3-fluoro-4-[(2S)-tetrahydro-2H-pyran-2-yl]benzenesulfonamide] | 1.79 nM | 131 nM |
| COc1nc2c(cc1NS(=O)(=O)c1ccc([C@H]3CCCCO3)c(C)c1)CCN(C)CC2 [Example 104, N-(2-methoxy-7-methyl-6,7,8,9-tetrahydro-5H-pyrido[2,3-d]azepin-3-yl)-3-methyl-4-[(2R)-tetrahydro-2H-pyran-2-yl]benzenesulfonamide] | 0.39 nM | 3.91 nM |
| CCCN1CCc2cc(NS(=O)(=O)c3ccc(C(C)C)cc3)c(OC)nc2CC1 [Example 49, N-(2-methoxy-7-propyl-6,7,8,9-tetrahydro-5H-pyrido[2,3-d]azepin-3-yl)-4-(propan-2-yl)benzenesulfonamide] | 0.88 nM | 102 nM |
| CCN1CCc2cc(NS(=O)(=O)c3ccc4c(c3)CCCO4)c(OC)nc2CC1 [Example 58, N-(7-ethyl-2-methoxy-6,7,8,9-tetrahydro-5H-pyrido[2,3-d]azepin-3-yl)-3,4-dihydro-2H-chromene-6-sulfonamide] | 4.4 nM | 760 nM |
| COc1nc2c(cc1NS(=O)(=O)c1ccc(C3CCCCC3)nc1)CCN(C)CC2 [Example 1, 6-Cyclohexyl-N-(2-methoxy-7-methyl-6,7,8,9-tetrahydro-5H-pyrido[2,3-d]azepin-3-yl)pyridine-3-sulfonamide] | 1.75 nM | 38.8 nM |
| COc1nc2c(cc1NS(=O)(=O)c1ccc(C3CCOC(C)(C)C3)cc1)CCN(C)CC2 (single isomer, unassigned) [Example 87] | 3.61 nM | 276 nM |
| COc1nc2c(cc1NS(=O)(=O)c1ccc(C3(F)CCC(OC)CC3)cc1)CCN(C)CC2 (single isomer, unassigned) [Example 93, 4-(trans-1-fluoro-4-methoxycyclohexyl)-N-(2-methoxy-7-methyl-6,7,8,9-tetrahydro-5H-pyrido[2,3-d]azepin-3-yl)benzenesulfonamide] | 2.03 nM | 366 nM |
| CCOc1ccc(S(=O)(=O)Nc2cc3c(nc2OC(C)C)CCN(CC)CC3)cc1 [Example 14, 4-Ethoxy-N-[7-ethyl-2-(propan-2-yloxy)-6,7,8,9-tetrahydro-5H-pyrido[2,3-d]azepin-3-yl]benzenesulfonamide] | 3.81 nM | 36.6 nM |
